From ChEMBL document CHEMBL1149262, “Monoamine transporter binding, locomotor activity, and drug discrimination properties of 3-(4-substituted-phenyl)tropane-2-carboxylic acid methyl ester isomers” (J Med Chem, 2004)
pIC50, pKi: −log10 of the molar value. Calls of active or inactive are those of the source. The rule behind the calls is not given here.

Experiments:
Mus musculus [1] = test: Locomotor activity in CD1 mouse assessed as stimulation at 0.3 mg/kg, ip after 1 hr relative to control; type: functional; conditions: route intraperitoneal
Mus musculus [2] = test: Locomotor activity in CD1 mouse assessed as stimulation at 0.3 mg/kg, ip after 2 hrs relative to control; type: functional; conditions: route intraperitoneal
Mus musculus [3] = test: Locomotor activity in CD1 mouse assessed as stimulation at 0.3 mg/kg, ip after 3 hrs relative to control; type: functional; conditions: route intraperitoneal
Mus musculus [4] = test: Locomotor activity in CD1 mouse assessed as stimulation at 0.3 mg/kg, ip after 4 hrs relative to control; type: functional; conditions: route intraperitoneal
Mus musculus [5] = test: Locomotor activity in CD1 mouse assessed as stimulation at 1 mg/kg, ip after 1 hr relative to control; type: functional; conditions: route intraperitoneal
Mus musculus [6] = test: Locomotor activity in CD1 mouse assessed as stimulation at 1 mg/kg, ip after 2 hrs relative to control; type: functional; conditions: route intraperitoneal
Mus musculus [7] = test: Locomotor activity in CD1 mouse assessed as stimulation at 1 mg/kg, ip after 3 hrs relative to control; type: functional; conditions: route intraperitoneal
Mus musculus [8] = test: Locomotor activity in CD1 mouse assessed as stimulation at 1 mg/kg, ip after 4 hrs relative to control; type: functional; conditions: route intraperitoneal
Rattus norvegicus [9] = test: Cocaine discrimination in ip dosed CD Albino rat; type: functional
Rattus norvegicus [10] = test: Drug discrimination effect in CD Albino rat assessed as percent of rat choosing cocaine lever at 0.17 mg/kg, ip; type: functional; conditions: route intraperitoneal
Rattus norvegicus [11] = test: Drug discrimination effect in CD Albino rat assessed as percent of rat choosing cocaine lever at 0.3 mg/kg, ip; type: functional; conditions: route intraperitoneal
Rattus norvegicus [12] = test: Drug discrimination effect in CD Albino rat assessed as percent of rat choosing cocaine lever at 0.56 mg/kg, ip; type: functional; conditions: route intraperitoneal
Rattus norvegicus [13] = test: Drug discrimination effect in CD Albino rat assessed as percent of rat choosing cocaine lever at 1 mg/kg, ip; type: functional; conditions: route intraperitoneal
Mus musculus [14] = test: Activity in CD1 mouse assessed as stereotypy at 10 mg/kg, ip after 4 hrs; type: functional, organism-based; parameters: dose 10 mg/kg
Mus musculus [15] = test: Activity in CD1 mouse assessed as stereotypy at 100 mg/kg, ip after 4 hrs; type: functional, organism-based; parameters: dose 100 mg/kg
[16] = target: Sodium-dependent dopamine transporter (Homo sapiens, UniProt Q01959); test: Displacement of [3H]WIN-35428 from DAT
Sodium-dependent dopamine transporter, sequence (Q01959 whole entry): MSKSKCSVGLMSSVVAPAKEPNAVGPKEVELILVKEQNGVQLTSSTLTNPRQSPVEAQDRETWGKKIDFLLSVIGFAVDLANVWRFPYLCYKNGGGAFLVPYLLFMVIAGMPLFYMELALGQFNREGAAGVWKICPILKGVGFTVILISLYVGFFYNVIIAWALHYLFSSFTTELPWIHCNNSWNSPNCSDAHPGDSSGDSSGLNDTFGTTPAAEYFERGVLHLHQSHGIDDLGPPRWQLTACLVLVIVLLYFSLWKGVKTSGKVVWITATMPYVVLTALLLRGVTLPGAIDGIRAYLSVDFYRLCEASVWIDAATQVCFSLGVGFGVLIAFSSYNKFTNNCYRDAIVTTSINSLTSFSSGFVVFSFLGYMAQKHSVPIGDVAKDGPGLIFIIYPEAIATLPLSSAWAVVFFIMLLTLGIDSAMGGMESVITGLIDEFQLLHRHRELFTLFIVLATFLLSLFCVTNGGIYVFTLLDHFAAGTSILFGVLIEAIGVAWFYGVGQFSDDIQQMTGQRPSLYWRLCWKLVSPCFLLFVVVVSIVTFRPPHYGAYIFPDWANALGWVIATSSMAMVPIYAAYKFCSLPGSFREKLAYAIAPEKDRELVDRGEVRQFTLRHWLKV

[17] = target: Sodium-dependent noradrenaline transporter (Homo sapiens, UniProt P23975); test: Displacement of [3H]nisoxetine from NET
Sodium-dependent noradrenaline transporter, sequence (P23975 whole entry): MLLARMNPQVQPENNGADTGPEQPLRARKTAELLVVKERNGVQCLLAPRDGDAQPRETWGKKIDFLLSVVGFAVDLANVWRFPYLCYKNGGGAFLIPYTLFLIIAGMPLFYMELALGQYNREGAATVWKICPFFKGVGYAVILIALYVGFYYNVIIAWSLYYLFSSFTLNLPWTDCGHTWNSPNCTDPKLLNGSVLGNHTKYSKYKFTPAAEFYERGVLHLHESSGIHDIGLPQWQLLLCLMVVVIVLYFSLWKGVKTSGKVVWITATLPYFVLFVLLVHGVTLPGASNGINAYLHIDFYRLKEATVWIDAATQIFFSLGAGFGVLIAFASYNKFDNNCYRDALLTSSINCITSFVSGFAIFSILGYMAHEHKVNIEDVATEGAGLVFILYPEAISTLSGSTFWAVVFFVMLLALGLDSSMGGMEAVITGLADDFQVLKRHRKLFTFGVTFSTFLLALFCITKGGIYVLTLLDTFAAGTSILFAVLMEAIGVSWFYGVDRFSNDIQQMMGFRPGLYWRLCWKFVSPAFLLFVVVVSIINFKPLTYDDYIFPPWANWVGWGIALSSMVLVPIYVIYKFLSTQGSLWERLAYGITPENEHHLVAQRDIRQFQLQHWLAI

Mus musculus [18] = test: Locomotor activity in ip dosed CD1 mouse in peak hour; type: functional
Mus musculus [19] = test: Locomotor activity in CD1 mouse assessed as stimulation at 3 mg/kg, ip after 1 hr relative to control; type: functional; conditions: route intraperitoneal
Mus musculus [20] = test: Locomotor activity in CD1 mouse assessed as stimulation at 3 mg/kg, ip after 2 hrs relative to control; type: functional; conditions: route intraperitoneal
Mus musculus [21] = test: Locomotor activity in CD1 mouse assessed as stimulation at 3 mg/kg, ip after 3 hrs relative to control; type: functional; conditions: route intraperitoneal
Mus musculus [22] = test: Locomotor activity in CD1 mouse assessed as stimulation at 3 mg/kg, ip after 4 hrs relative to control; type: functional; conditions: route intraperitoneal
Mus musculus [23] = test: Locomotor activity in CD1 mouse assessed as stimulation at 10 mg/kg, ip after 1 hr relative to control; type: functional; conditions: route intraperitoneal
Mus musculus [24] = test: Locomotor activity in CD1 mouse assessed as stimulation at 10 mg/kg, ip after 2 hrs relative to control; type: functional; conditions: route intraperitoneal
Mus musculus [25] = test: Locomotor activity in CD1 mouse assessed as stimulation at 10 mg/kg, ip after 3 hrs relative to control; type: functional; conditions: route intraperitoneal
Mus musculus [26] = test: Locomotor activity in CD1 mouse assessed as stimulation at 10 mg/kg, ip after 4 hrs relative to control; type: functional; conditions: route intraperitoneal
Rattus norvegicus [27] = test: Drug discrimination effect in CD Albino rat assessed as percent of rat choosing cocaine lever at 0.1 mg/kg, ip; type: functional; conditions: route intraperitoneal
Mus musculus [28] = test: Activity in CD1 mouse assessed as hyperactivity at 1 mg/kg, ip after 4 hrs; type: functional, organism-based; parameters: dose 1 mg/kg
Mus musculus [29] = test: Activity in CD1 mouse assessed as stereotypy at 1 mg/kg, ip after 4 hrs; type: functional, organism-based; parameters: dose 1 mg/kg
Mus musculus [30] = test: Activity in CD1 mouse assessed as hyperactivity at 10 mg/kg, ip after 4 hrs; type: functional, organism-based; parameters: dose 10 mg/kg
Mus musculus [31] = test: Activity in CD1 mouse assessed as circling at 10 mg/kg, ip after 4 hrs; type: functional, organism-based; parameters: dose 10 mg/kg
Mus musculus [32] = test: Activity in CD1 mouse assessed as straub tail at 100 mg/kg, ip after 4 hrs; type: functional, organism-based; parameters: dose 100 mg/kg
Mus musculus [33] = test: Activity in CD1 mouse assessed as convulsions at 100 mg/kg, ip after 4 hrs; type: functional, organism-based; parameters: dose 100 mg/kg
Rattus norvegicus [34] = test: Drug discrimination effect in CD Albino rat assessed as percent of rat choosing cocaine lever at 3 mg/kg, ip; type: functional; conditions: route intraperitoneal
Rattus norvegicus [35] = test: Drug discrimination effect in CD Albino rat assessed as percent of rat choosing cocaine lever at 5.6 mg/kg, ip; type: functional; conditions: route intraperitoneal
Rattus norvegicus [36] = test: Drug discrimination effect in CD Albino rat assessed as percent of rat choosing cocaine lever at 10 mg/kg, ip; type: functional; conditions: route intraperitoneal
Mus musculus [37] = test: Activity in CD1 mouse assessed as slight or intermittent hyperactivity at 10 mg/kg, ip after 4 hrs; type: functional, organism-based; parameters: dose 10 mg/kg
Mus musculus [38] = test: Activity in CD1 mouse assessed as hyperactivity at 100 mg/kg, ip after 4 hrs; type: functional, organism-based; parameters: dose 100 mg/kg
Mus musculus [39] = test: Activity in CD1 mouse assessed as circling at 100 mg/kg, ip after 4 hrs; type: functional, organism-based; parameters: dose 100 mg/kg
Mus musculus [40] = test: Locomotor activity in CD1 mouse assessed as stimulation at 30 mg/kg, ip after 1 hr relative to control; type: functional; conditions: route intraperitoneal
Mus musculus [41] = test: Locomotor activity in CD1 mouse assessed as stimulation at 30 mg/kg, ip after 2 hrs relative to control; type: functional; conditions: route intraperitoneal
Mus musculus [42] = test: Locomotor activity in CD1 mouse assessed as stimulation at 30 mg/kg, ip after 3 hrs relative to control; type: functional; conditions: route intraperitoneal
Mus musculus [43] = test: Locomotor activity in CD1 mouse assessed as stimulation at 30 mg/kg, ip after 4 hrs relative to control; type: functional; conditions: route intraperitoneal
Mus musculus [44] = test: Locomotor activity in CD1 mouse assessed as stimulation at 100 mg/kg, ip after 1 hr relative to control; type: functional; conditions: route intraperitoneal
Mus musculus [45] = test: Locomotor activity in CD1 mouse assessed as stimulation at 100 mg/kg, ip after 2 hrs relative to control; type: functional; conditions: route intraperitoneal
Mus musculus [46] = test: Locomotor activity in CD1 mouse assessed as stimulation at 100 mg/kg, ip after 3 hrs relative to control; type: functional; conditions: route intraperitoneal
Mus musculus [47] = test: Locomotor activity in CD1 mouse assessed as stimulation at 100 mg/kg, ip after 4 hrs relative to control; type: functional; conditions: route intraperitoneal
[48] = target: Sodium-dependent serotonin transporter (Homo sapiens, UniProt P31645)
Sodium-dependent serotonin transporter, sequence (P31645 whole entry): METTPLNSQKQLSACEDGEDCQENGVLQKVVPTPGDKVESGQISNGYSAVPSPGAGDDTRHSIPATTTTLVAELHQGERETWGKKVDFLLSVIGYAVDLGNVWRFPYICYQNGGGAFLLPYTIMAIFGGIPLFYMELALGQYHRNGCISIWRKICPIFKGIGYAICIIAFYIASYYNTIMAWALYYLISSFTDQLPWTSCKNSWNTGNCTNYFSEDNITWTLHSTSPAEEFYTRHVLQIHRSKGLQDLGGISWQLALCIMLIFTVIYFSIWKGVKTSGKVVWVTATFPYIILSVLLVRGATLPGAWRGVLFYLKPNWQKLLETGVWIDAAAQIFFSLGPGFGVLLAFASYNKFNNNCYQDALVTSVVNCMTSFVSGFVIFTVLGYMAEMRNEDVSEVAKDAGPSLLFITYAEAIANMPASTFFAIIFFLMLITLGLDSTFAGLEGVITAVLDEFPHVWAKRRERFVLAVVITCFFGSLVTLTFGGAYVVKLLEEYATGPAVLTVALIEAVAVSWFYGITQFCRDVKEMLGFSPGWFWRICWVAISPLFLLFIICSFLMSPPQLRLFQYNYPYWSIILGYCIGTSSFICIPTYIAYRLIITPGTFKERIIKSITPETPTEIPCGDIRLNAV
Description: Displacement of [3H]paroxetine from 5HTT

SMILES	Activity (Mus musculus [1])	Activity (Mus musculus [2])	Activity (Mus musculus [3])	Activity (Mus musculus [4])	Activity (Mus musculus [5])	ED50 (Rattus norvegicus [9])	Activity (Rattus norvegicus [13])	Activity (Mus musculus [14])	Activity (Mus musculus [15])	pIC50 [17]	pKi [17]	ED50 (Mus musculus [18])	Activity (Mus musculus [19])	Activity (Mus musculus [20])	Activity (Mus musculus [21])	Activity (Mus musculus [22])	Activity (Mus musculus [23])	Activity (Mus musculus [24])	Activity (Mus musculus [25])	Activity (Mus musculus [26])	other results
COC(=O)[C@@H]1C2CC[C@H](C[C@@H]1c1ccc(C)cc1)N2C	19%	-3%	-61%	-28%	305%	0.31 mg/kg	86%	Active	Active	7.22	7.44	0.6 mg/kg	533%	460%	157%	30%	283%	476%	343%	273%	Activity (Mus musculus [6]): 298%; Activity (Mus musculus [7]): 41%; Activity (Mus musculus [8]): -4%; Activity (Rattus norvegicus [10]): 25%; Activity (Rattus norvegicus [11]): 57%; Activity (Rattus norvegicus [12]): 71%; pIC50 [16]: 8.77; Activity (Rattus norvegicus [27]): 0%
COC(=O)[C@@H]1C2CC[C@H](C[C@@H]1c1ccccc1)N2C	44%	56%	24%	62%	253%	0.34 mg/kg	100%	Active	Active	6.04	6.26	1.2 mg/kg	660%	506%	276%	199%	904%	1080%	964%	190%	Activity (Mus musculus [6]): 192%; Activity (Mus musculus [7]): 102%; Activity (Mus musculus [8]): 151%; Activity (Rattus norvegicus [10]): 14%; Activity (Rattus norvegicus [11]): 36%; Activity (Rattus norvegicus [12]): 88%; Activity (Mus musculus [28]): Active; Activity (Mus musculus [29]): Active; Activity (Mus musculus [30]): Active; Activity (Mus musculus [31]): Active; Activity (Mus musculus [32]): Active; Activity (Mus musculus [33]): Active
COC(=O)[C@@H]1C2CCC(C[C@H]1c1ccc(F)cc1)N2C (some centres not stated)						5.66 mg/kg	0%	Active	Active	5.92	6.13	15.6 mg/kg	26%	-23%	16%	41%	137%	105%	146%	58%	Activity (Rattus norvegicus [34]): 29%; Activity (Rattus norvegicus [35]): 38%; Activity (Rattus norvegicus [36]): 86%; Activity (Mus musculus [31]): Active; Activity (Mus musculus [37]): Active; Activity (Mus musculus [38]): Active; Activity (Mus musculus [39]): Active; Activity (Mus musculus [40]): 362%; Activity (Mus musculus [41]): 187%; Activity (Mus musculus [42]): 215%; Activity (Mus musculus [43]): 66%; Activity (Mus musculus [44]): 575%; Activity (Mus musculus [45]): 340%; Activity (Mus musculus [46]): 194%; Activity (Mus musculus [47]): 73%; pIC50 [48]: 5.30; pKi [48]: 6.34
